Test results as given in ChEMBL document CHEMBL1201862, “PubChem BioAssay data set” (2004).
Activity calls are given as the source filed them.

Tests used:
[1] = target: T1, Short transient receptor potential channel 4 (Mus musculus, UniProt Q9QUQ5); assay: TRPC4 positive allosteric modulators, dose response, cell-based, HEK293 TRPC4/mu-opioid, Fluo-4 calcium, EC20 DAMGO (AID 434941); assay type: functional
T1 sequence (Q9QUQ5 whole entry): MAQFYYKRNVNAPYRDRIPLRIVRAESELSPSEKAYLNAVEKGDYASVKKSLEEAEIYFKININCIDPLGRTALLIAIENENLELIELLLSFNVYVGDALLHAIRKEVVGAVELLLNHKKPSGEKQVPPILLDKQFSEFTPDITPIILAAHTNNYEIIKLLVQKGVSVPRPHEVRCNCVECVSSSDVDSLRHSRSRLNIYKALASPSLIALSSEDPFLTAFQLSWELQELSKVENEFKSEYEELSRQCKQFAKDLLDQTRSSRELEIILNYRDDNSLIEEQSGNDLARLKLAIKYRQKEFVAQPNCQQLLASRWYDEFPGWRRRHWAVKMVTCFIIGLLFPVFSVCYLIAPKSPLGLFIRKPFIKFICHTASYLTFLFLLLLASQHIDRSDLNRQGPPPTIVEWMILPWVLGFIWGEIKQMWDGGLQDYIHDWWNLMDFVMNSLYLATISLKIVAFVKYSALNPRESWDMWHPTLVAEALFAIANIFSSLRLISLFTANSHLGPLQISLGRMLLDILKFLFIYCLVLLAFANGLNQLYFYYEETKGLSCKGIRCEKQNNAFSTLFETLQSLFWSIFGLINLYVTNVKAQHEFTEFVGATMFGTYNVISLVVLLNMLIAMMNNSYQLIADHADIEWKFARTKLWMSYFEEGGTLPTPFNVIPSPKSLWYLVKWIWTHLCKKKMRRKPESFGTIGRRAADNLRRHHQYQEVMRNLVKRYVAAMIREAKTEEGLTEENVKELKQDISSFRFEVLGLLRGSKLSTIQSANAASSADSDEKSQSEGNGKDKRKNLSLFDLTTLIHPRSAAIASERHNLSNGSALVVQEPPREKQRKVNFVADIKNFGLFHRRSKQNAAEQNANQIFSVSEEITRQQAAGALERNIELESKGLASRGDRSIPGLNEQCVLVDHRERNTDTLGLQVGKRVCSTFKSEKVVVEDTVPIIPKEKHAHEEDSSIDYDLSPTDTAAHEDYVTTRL

[2] = target: T2, Histone-lysine N-methyltransferase NSD2 (Homo sapiens, UniProt O96028); assay type: biochemical
T2 sequence (O96028 whole entry): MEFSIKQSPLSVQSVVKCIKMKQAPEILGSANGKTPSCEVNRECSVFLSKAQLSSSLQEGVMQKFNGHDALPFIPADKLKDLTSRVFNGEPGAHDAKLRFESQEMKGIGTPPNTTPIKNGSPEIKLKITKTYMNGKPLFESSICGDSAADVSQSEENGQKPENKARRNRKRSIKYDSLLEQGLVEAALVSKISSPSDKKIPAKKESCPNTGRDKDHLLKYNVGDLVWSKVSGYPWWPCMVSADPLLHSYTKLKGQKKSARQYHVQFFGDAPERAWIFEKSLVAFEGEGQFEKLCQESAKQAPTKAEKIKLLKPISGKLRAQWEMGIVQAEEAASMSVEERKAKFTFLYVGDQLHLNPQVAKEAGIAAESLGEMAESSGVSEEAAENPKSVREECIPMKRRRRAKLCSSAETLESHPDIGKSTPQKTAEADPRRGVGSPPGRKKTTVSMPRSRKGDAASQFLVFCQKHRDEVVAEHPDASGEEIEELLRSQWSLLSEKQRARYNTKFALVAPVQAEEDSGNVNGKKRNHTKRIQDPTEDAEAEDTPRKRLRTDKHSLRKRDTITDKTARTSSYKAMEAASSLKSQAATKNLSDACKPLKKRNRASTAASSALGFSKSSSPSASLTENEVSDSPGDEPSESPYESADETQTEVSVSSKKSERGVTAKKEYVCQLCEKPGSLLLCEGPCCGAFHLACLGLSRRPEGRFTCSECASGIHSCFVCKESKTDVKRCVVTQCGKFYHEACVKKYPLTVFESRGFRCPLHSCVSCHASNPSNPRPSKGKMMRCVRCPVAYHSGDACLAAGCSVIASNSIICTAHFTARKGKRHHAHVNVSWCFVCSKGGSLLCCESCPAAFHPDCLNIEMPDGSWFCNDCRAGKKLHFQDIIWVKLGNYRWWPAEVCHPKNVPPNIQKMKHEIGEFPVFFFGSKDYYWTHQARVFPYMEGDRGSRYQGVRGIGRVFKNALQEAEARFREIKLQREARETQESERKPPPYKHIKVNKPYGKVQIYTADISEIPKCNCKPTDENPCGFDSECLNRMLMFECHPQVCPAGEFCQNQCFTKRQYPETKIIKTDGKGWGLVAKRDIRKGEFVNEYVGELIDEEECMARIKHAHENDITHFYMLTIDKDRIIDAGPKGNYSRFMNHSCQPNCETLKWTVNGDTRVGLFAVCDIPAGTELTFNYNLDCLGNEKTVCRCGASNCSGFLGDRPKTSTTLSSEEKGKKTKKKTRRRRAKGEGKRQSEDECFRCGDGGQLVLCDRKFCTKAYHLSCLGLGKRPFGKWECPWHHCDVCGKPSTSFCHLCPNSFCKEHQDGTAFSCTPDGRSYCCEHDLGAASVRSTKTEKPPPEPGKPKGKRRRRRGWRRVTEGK

[3] = target: Intestinal-type alkaline phosphatase (Mus musculus, UniProt P24822); assay: PubChem AID 488785; assay type: functional
[4] = target: Intestinal-type alkaline phosphatase (Homo sapiens, UniProt P09923); assay: activation of human intestinal alkaline phosphatase – biochemical, dose response (AID 488873); assay type: functional
Sequence of Intestinal-type alkaline phosphatase (Homo sapiens, UniProt P09923) (P09923 whole entry): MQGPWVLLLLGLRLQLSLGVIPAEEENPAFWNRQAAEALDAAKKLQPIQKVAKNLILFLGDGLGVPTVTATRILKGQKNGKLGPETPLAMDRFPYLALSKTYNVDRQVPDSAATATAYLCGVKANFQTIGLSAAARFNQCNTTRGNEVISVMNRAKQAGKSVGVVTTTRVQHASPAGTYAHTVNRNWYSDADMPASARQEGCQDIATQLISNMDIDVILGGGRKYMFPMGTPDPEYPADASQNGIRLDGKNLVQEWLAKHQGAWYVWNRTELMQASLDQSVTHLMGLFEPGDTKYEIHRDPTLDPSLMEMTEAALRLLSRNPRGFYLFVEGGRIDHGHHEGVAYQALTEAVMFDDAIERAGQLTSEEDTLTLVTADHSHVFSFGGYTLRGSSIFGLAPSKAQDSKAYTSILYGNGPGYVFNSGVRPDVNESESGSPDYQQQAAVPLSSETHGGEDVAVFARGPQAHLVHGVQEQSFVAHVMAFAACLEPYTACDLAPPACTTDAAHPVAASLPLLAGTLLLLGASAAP

[5] = target: T3, Alkaline phosphatase, tissue-nonspecific isozyme (Homo sapiens, UniProt P05186); assay: TNAP enzyme inhibition by screening hits, dose response, selectivity assay for mouse IAP inhibitor project, biochemical, human TNAP, uHTS hits (AID 488906); assay type: functional
T3 sequence (P05186 whole entry): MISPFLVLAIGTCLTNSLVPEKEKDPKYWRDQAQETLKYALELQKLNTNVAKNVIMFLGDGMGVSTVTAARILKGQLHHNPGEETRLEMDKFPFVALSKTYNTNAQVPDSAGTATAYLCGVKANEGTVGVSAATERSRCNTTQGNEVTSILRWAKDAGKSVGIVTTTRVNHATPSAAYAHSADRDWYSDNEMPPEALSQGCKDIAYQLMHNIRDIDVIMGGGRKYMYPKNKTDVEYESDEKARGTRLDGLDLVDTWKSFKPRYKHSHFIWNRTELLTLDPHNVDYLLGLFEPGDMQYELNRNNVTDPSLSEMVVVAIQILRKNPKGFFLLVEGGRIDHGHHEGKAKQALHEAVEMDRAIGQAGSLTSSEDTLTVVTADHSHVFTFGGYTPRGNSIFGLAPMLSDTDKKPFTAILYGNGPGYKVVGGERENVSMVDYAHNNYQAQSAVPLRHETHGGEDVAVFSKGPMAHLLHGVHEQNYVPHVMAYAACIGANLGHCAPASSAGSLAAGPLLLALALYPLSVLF

H9c2 = assay: cells; assay type: functional, cell-based; settings: Rattus norvegicus, H9c2, Myocardium;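 further: confirmatory concentration-response retest of ultra-high-throughput screening hits for modulation of myocardial damage; cell death induced by hydrogen peroxide oxidative stress; compound pretreatment for 60 min then peroxide exposure for 2 h; potency is for protecting the cells against peroxide damage rather than for killing them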
[6] = C. albicans growth with fluconazole, confirmation, fluorescence, retest (AID 2467); assay type: functional, cell-based
Beta-galactosidase = Beta-galactosidase (Escherichia coli, UniProt Q8VNN2); assay: beta-galactosidase enzyme inhibitors and activators, dose response, artefact control for CCR6 antagonist project, biochemical, E. coli enzyme, set 3 (AID 504712); assay type: functional
Sequence of Beta-galactosidase (Q8VNN2 whole entry): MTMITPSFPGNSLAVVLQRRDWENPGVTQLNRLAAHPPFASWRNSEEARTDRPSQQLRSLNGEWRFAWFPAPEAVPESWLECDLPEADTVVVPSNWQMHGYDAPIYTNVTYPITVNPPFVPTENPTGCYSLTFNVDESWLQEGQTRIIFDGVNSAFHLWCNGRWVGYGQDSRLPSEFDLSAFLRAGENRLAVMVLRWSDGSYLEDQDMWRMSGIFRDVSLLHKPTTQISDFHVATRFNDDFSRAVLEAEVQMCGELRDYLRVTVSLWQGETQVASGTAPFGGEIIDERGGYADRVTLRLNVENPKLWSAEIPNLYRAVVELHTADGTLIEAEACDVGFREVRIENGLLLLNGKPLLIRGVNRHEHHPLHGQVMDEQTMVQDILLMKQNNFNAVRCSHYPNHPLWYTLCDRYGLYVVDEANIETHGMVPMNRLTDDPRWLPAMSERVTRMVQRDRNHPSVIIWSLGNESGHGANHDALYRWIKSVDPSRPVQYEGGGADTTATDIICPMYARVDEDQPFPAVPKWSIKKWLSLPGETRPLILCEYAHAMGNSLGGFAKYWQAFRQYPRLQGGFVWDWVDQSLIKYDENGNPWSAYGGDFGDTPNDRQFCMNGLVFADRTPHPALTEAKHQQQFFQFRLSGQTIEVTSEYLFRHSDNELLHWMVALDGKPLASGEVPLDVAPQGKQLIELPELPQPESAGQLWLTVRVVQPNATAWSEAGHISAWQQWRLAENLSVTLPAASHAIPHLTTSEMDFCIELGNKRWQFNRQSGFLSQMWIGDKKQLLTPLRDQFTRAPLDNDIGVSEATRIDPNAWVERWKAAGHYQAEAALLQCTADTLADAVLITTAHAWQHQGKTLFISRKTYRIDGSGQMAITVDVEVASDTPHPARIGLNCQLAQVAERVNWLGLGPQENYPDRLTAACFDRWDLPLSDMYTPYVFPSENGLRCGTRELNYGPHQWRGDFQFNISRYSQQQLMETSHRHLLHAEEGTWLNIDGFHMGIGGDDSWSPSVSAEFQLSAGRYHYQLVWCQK

[7] = NIH-3T3 fibroblast cytotoxicity, dose response, cytotoxicity control, cell-based, fluorescence, Alamar Blue, secondary assay (AID 2327); assay type: functional;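 further: NIH-3T3 mouse fibroblasts cultured with fluconazole at 8 µg/mL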
Large T antigen = Large T antigen (Simian virus 40, UniProt P03070); assay type: functional, Betapolyomavirus macacae;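 further: Confirmatory-stage PubChem screen for compounds that inhibit SV40 T antigen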
Sequence of Large T antigen (P03070 whole entry): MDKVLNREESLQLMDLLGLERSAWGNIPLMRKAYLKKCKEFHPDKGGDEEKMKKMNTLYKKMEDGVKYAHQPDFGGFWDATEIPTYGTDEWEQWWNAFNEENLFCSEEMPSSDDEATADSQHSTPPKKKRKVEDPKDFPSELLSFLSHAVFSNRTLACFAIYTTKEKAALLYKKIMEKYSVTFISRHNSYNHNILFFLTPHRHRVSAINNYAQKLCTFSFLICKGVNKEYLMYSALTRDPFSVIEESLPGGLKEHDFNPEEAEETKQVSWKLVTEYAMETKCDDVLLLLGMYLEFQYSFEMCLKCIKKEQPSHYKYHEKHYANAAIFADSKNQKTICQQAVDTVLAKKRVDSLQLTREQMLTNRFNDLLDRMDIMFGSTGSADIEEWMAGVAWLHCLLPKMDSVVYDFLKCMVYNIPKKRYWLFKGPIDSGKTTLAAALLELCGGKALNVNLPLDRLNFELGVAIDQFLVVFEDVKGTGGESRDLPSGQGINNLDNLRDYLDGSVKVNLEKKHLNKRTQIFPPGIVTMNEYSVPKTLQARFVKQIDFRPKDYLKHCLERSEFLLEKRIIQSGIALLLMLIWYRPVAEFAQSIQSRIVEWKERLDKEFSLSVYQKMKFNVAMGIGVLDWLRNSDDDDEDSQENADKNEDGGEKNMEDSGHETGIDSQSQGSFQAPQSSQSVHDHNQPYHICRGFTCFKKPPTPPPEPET

[8] = target: DNA dC->dU-editing enzyme APOBEC-3G (Homo sapiens, UniProt Q9HC16); assay: Dose Response confirmation of small molecule APOBEC3G DNA Deaminase Inhibitors via a fluorescence-based single-stranded DNA deaminase assay. [Related pubchem assays (depositor defined):AID493012, AID493028]; assay type: functional
Hexokinase HKDC1 = target: T4, Hexokinase HKDC1 (Homo sapiens, UniProt Q2TB90); assay: HKDC1 hexokinase inhibitors, dose response, biochemical, W721R variant (AID 504729); assay type: functional
T4 sequence (Q2TB90 whole entry): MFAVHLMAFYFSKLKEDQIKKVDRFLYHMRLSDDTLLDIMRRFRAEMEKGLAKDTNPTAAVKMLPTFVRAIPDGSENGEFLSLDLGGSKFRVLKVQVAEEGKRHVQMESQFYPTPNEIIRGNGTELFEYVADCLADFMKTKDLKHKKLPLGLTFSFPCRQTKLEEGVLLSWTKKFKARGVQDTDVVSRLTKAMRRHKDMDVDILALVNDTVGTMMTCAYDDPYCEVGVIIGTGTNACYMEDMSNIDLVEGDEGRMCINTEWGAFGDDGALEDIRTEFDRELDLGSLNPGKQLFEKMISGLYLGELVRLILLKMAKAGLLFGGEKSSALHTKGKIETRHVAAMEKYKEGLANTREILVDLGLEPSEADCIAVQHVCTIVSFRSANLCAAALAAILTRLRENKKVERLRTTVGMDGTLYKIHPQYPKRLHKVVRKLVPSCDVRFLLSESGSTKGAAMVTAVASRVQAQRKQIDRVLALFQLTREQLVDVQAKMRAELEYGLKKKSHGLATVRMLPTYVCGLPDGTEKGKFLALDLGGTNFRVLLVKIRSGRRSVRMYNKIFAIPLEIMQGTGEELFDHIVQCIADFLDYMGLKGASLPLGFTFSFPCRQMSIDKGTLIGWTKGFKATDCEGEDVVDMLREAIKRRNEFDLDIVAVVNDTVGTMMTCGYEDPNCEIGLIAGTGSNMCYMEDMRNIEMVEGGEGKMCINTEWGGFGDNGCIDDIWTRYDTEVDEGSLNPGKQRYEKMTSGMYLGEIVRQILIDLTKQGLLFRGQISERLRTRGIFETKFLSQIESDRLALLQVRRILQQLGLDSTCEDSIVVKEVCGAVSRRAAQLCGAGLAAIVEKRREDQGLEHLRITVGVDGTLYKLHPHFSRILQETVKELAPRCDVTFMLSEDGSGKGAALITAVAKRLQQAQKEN

Streptococcus = assay: Group A Streptococcus viability loss, dose response, counter-screen for streptokinase expression inhibitor project, luminescence, BacTiterGlo (AID 1915); assay type: functional, organism-based;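 further: potency for reduction of bacterial viability or growth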
[9] = test system: Streptococcus sp. 'group A'; assay: growth inhibition of control SK(-) GAS strain, dose response, counter-screen for streptokinase expression inhibitor project, luminescence, kanamycin, BacTiterGlo, confirmation (AID 1900); assay type: functional, organism-based
[10] = target: Heat shock protein HSP 90-alpha (Homo sapiens, UniProt P07900); assay type: functional, organism-based
CAAX prenyl protease 2 = target: T5, CAAX prenyl protease 2 (Saccharomyces cerevisiae S288c, UniProt Q03530); assay type: biochemical
T5 sequence (Q03530 whole entry): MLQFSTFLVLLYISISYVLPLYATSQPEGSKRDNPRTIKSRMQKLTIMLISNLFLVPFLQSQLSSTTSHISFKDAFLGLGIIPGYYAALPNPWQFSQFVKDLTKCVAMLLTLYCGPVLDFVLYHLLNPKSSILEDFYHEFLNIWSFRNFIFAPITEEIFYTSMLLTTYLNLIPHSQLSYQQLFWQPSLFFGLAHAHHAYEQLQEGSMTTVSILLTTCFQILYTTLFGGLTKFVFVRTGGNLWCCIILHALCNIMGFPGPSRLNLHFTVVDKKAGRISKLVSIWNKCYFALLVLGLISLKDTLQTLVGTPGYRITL

[11] = target: Induced myeloid leukemia cell differentiation protein Mcl-1 (Homo sapiens, UniProt Q07820); assay type: functional
Sequence of Induced myeloid leukemia cell differentiation protein Mcl-1 (Q07820 whole entry): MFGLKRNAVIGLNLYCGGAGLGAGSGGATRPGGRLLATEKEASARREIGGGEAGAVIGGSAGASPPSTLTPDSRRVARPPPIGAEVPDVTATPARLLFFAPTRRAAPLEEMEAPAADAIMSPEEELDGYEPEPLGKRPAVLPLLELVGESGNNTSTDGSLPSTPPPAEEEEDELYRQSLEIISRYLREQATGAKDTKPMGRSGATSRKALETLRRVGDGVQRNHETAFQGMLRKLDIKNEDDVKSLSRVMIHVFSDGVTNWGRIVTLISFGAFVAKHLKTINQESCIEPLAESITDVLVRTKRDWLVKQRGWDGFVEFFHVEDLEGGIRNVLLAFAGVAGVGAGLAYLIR

Vero = Vero cell cytotoxicity, cytotoxicity control for flavivirus capping enzyme inhibitors (AID 588742); assay type: functional; settings: Chlorocebus sabaeus
Genome polyprotein = Genome polyprotein (dengue virus type 2, UniProt P29990); assay: Dengue-2 NS5 methyltransferase inhibitors, primary screen, biochemical, confirmation dose response (AID 588689); assay type: functional
Sequence of Genome polyprotein (P29990 2492-3391 limits assumed): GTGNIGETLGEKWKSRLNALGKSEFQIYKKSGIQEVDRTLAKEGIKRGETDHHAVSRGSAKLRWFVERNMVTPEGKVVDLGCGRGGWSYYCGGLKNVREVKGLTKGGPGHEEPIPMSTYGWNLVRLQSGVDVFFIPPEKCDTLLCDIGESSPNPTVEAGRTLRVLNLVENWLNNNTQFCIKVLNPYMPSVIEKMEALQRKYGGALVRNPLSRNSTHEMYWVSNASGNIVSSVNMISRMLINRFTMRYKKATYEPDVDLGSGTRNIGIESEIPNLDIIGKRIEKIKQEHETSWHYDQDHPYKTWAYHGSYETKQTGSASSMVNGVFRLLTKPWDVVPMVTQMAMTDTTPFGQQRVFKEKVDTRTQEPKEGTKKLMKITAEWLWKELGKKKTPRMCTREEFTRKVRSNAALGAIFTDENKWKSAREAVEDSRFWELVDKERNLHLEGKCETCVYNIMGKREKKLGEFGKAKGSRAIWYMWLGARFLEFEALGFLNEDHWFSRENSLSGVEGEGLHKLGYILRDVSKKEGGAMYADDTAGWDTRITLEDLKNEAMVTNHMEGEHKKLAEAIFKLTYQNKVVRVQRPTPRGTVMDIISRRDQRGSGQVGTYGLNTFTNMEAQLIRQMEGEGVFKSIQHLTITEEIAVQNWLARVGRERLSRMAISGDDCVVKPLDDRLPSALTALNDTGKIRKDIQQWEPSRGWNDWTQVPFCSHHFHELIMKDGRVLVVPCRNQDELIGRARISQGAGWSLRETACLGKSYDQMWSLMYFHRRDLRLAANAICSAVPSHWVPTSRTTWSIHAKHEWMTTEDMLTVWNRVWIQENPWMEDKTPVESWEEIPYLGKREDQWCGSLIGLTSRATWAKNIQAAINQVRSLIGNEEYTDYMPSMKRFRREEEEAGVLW

SUMO-activating enzyme [12] = target: T6, SUMO-activating enzyme (Homo sapiens, UniProt Q9UBT2); assay: SUMOylation inhibitor hit validation, confirmation, SUMOylation inhibitor project, biochemical, AlphaScreen (AID 2018); assay type: functional
T6 sequence (Q9UBE0 whole entry): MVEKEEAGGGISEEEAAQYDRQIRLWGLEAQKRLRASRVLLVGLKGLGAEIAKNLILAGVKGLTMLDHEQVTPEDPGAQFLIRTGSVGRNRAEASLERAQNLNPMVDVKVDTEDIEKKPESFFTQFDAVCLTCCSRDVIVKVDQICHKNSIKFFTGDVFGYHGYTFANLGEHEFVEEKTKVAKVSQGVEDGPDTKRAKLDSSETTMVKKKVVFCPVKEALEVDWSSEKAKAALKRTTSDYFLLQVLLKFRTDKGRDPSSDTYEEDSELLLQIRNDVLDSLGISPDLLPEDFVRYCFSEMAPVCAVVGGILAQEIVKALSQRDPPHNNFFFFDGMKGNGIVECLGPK
T6 sequence (Q9UBT2 whole entry): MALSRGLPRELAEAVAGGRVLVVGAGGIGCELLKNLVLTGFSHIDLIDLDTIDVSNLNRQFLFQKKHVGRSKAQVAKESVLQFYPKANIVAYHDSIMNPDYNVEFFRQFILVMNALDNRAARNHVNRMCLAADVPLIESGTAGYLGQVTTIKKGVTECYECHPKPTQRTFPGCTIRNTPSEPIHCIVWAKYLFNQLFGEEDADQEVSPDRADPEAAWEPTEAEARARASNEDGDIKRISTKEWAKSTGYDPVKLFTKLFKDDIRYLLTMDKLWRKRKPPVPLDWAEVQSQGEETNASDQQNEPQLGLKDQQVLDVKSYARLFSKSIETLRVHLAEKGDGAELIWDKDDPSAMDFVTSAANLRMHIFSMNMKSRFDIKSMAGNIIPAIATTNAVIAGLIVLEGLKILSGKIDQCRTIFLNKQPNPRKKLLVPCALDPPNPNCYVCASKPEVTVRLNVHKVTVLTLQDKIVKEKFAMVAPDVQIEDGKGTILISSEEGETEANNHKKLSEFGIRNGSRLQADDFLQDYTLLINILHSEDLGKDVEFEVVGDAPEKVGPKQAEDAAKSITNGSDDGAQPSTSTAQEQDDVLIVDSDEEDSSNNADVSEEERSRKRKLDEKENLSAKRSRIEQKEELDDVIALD

SUMO-activating enzyme [13] = target: T6, SUMO-activating enzyme; assay: inhibitors of in vitro SUMOylation cascade, primary screen, biochemical, HTRF, uHTS (AID 2006); assay type: protein-complex assay
[14] = target: G-protein coupled receptor 55 (Homo sapiens, UniProt Q9Y2T6); assay: GPR55 antagonists blocking LPI-driven arrestin recruitment, primary screen, imaging, U2OS, beta-arrestin-GFP, LPI agonist (AID 2013); assay type: functional;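 further: antagonist potency measured as reduced agonist-driven arrestin aggregation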
Sequence of G-protein coupled receptor 55 (Q9Y2T6 whole entry): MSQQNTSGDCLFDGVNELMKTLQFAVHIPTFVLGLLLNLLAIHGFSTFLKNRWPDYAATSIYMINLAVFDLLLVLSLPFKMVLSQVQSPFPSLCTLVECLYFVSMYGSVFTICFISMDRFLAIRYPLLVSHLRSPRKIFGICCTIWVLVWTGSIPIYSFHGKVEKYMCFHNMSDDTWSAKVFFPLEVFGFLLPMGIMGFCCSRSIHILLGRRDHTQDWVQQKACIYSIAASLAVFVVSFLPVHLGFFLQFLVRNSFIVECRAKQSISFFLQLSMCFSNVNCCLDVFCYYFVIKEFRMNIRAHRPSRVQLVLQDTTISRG

Compound: Cc1cc(OCC(=O)N(C(C)C)C(C)C)cc(C)c1Br
- EC50 [1]: 3.76 µM (active)

Compound: O=C(CN1CCN(c2ccccc2F)CC1)c1ccc(O)c(O)c1
- AC50 [2]: 8.98 µM (active)
- IC50 [3]: 1.63 µM (active)
- EC50 [4]: > 100 µM (inactive)
- IC50 [5]: 96.8 µM (active)
- IC50 (H9c2): > 79 µM (inactive)

Compound: CCCCn1c(SCC(=O)N2c3ccccc3Sc3ccccc32)nc2c1c(=O)n(C)c(=O)n2C
- EC50 [1]: 4.22 µM (active)

Compound: O=C(NC(=S)Nc1ccccc1O)c1ccc(Cl)cc1Cl
- EC50 [6]: 0.636 µM (active)
- IC50 (Beta-galactosidase): > 66.6 µM (inactive)
- EC50 [7]: > 160 µM (inconclusive)

Compound: Sc1nnc(NCCCN2CCOCC2)s1
- IC50 (Large T antigen): 22.6 µM (active)
- IC50 [8]: 22.4 µM (active)

Compound: Cc1cccc(N2C(=O)NC(=O)/C(=C\c3cc(C)n(-c4sc5c(c4C#N)CCCC5)c3C)C2=O)c1C
- IC50 (Hexokinase HKDC1): 17.1 µM (active)

Compound: O=C(Nc1nc(-c2ccccc2)c(-c2ccccc2)o1)c1ccc(F)cc1
- EC50 (Streptococcus): 1.77 µM (active)
- EC50 [9]: 0.894 µM (active)
- IC50 (Beta-galactosidase): > 66.6 µM (inactive)
- AC50 [10]: 7.59 µM (active)

Compound: O=C1C(Cl)=C(Nc2cccc(O)c2)C(=O)N1Cc1ccccc1
- EC50 [1]: 3.76 µM (active)

Compound: CCn1cc(/C=C(\NC(=O)c2ccccc2Cl)C(=O)N2CCOCC2)c2ccccc21
- AC50 (CAAX prenyl protease 2): 4.91 µM (active)

Compound: CC(C)c1ccc(S(=O)(=O)/N=C2/C=C(Sc3nc[nH]n3)C(=O)c3ccccc32)cc1
- IC50 [11]: 1.35 µM (active)
- IC50 (Hexokinase HKDC1): 2.88 µM (active)
- CC50 (Vero): 22.2 µM (active)
- IC50 (Genome polyprotein): 6.89 µM (active)

Compound: Cc1ccccc1C(=O)Nc1nnc(CC(=O)N/N=C/c2cn(Cc3ccccc3)c3ccccc23)s1
- IC50 (SUMO-activating enzyme [12]): 16.8 µM (active)
- IC50 (SUMO-activating enzyme [13]): 24.7 µM (active)

Compound: CCOC(=O)C1=C(C)N=C(C)/C(=C(/O)OC)C1c1cccc([N+](=O)[O-])c1 (stereo unspecified)
- IC50 [14]: 1.47 µM (active)
